Here are results for 33 molecules from US20240246946A1, “MODULATORS OF TREX1” (Constellation Pharmaceuticals, Inc., priority 2021, published 2024).

One assay addresses T1, full length human TREX1 (Homo sapiens, UniProt Q9NSU2).
T1 construct: N-terminally His-Tev tagged full length human TREX1; made in house; host or cells: E. coli
T1 sequence (Q9NSU2 1-314): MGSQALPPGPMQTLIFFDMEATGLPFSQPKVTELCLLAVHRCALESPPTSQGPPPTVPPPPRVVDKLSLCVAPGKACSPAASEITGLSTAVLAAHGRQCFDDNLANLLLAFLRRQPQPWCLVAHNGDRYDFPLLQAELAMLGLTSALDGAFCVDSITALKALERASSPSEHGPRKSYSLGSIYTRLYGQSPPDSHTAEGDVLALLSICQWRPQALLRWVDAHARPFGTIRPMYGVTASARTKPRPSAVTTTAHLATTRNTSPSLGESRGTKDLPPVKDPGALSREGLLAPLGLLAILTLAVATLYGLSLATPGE
Put plainly: hTREX1 Biochemical Assay (fluorescence, dsDNA substrate degradation). Conditions: biochemical, read-out: hTREX1 IC50. How it is done:
(§1) Degradation of the dsDNA liberates free fluorophore to produce a fluorescent signal. Specifically, 7.5 μL of N-terminally His-Tev tagged full length human TREX1 (expressed in E. coli and purified in house) in reaction buffer (50 mM Tris, 150 mM NaCl, 2 mM DTT, 0.1 mg/mL BSA, 0.01% (w/v) Tween-20, 5 mM MgCl2, pH 7.4) was added to a 384-well Black ProxiPlate Plus (PerkinElmer) which already contained compound (150 nL) at varying concentrations as a 10 point dose-response in DMSO. The plate was incubated at 25° C. for 4 hours. Reactions were initiated by adding 7.5 μL of dsDNA substrate (Strand A: 5′ TEX615/GCT AGG CAG 3′; Strand B: 5′ CTG CCT AGC/IAbRQSp (Integrated DNA Technologies)) in reaction buffer. Final concentrations were 4 pM TREX1, 60 nM dsDNA substrate in reaction buffer with 1.0% DMSO (v/v). After 18 hours at 25° C., reactions were quenched by the addition of 2 μL of 500 mM EDTA.

The target in the next assay is T2, full length mouse TREX1 (Mus musculus, UniProt Q91XB0).
T2 construct: N-terminally His-Tev tagged full length mouse TREX1; made in house; host or cells: E. coli
T2 sequence (Q91XB0 1-314): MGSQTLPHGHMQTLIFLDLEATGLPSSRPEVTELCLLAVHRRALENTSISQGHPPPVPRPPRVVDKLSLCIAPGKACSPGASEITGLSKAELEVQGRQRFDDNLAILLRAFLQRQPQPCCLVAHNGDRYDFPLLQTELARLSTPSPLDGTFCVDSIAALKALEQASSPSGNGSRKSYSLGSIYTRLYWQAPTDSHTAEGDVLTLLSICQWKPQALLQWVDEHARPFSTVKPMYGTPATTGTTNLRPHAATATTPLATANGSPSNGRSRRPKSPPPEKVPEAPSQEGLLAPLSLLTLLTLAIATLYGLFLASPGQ
Nature of the assay: mTREX1 Biochemical Assay (fluorescence, dsDNA substrate degradation). Conditions: biochemical, read-out: mTREX1 IC50. Here is the method: as §1, with “length mouse” for “length human”, “were 6” for “were 4”

Broadly, the IC50 is the concentration that inhibits the measured activity by half. `CC(c1nc(C(=O)Nc2cnoc2)c(O)c(=O)n1C)C(c1ccccc1C#N)c1ccnn1C` (single isomer, unassigned) [Example 1 D2E1]: the IC50 on full length human TREX1 and at full length mouse TREX1 was above 10 nM each time.

Turning to `CC(c1nc(C(=O)Nc2cnoc2)c(O)c(=O)n1C)C(c1cnn(C)c1)c1ccccc1C#N` (single isomer, unassigned) [Example 2 D2E1], the IC50 at full length human TREX1 and at full length mouse TREX1 was above 10 nM in each case.

With `Cc1nn(C)cc1C(c1ccccc1C#N)C(C)c1nc(C(=O)Nc2cnoc2)c(O)c(=O)n1C` (single isomer, unassigned) [Example 3 D1E2], the IC50 on full length human TREX1 and on full length mouse TREX1 was above 10 nM throughout.

Turning to `Cc1nn(C)cc1C(c1ccccc1C#N)C(C)c1nc(C(=O)Nc2cnoc2)c(O)c(=O)n1C` (single isomer, unassigned) [Example 3 D2E1], the IC50 at full length human TREX1 and at full length mouse TREX1 was above 10 nM each time.

As for `Cc1c(C(c2ccccc2C#N)C(C)c2nc(C(=O)Nc3cnoc3)c(O)c(=O)n2C)cnn1C` (single isomer, unassigned) [Example 4 D1E2], the IC50 at full length human TREX1 and at full length mouse TREX1 was above 10 nM throughout.

Turning to `Cc1c(C(c2ccccc2C#N)C(C)c2nc(C(=O)Nc3cnoc3)c(O)c(=O)n2C)cnn1C` (single isomer, unassigned) [Example 4 D2E1], the IC50 at full length human TREX1 and at full length mouse TREX1 was above 10 nM throughout.

Regarding `Cc1ccc(C(c2ccccc2C#N)C(C)c2nc(C(=O)Nc3cnoc3)c(O)c(=O)n2C)cn1` (single isomer, unassigned) [Example 5 D1E1], the IC50 at full length human TREX1 and on full length mouse TREX1 was above 10 nM throughout.

Consider `Cc1cc(C(c2ccccc2C#N)C(C)c2nc(C(=O)Nc3cnoc3)c(O)c(=O)n2C)ccn1` (single isomer, unassigned) [Example 6 D2E1], for which the concentration for half-maximal inhibition (IC50) at full length human TREX1 and at full length mouse TREX1 was above 10 nM throughout.

In the case of `CC(c1nc(C(=O)Nc2cnoc2)c(O)c(=O)n1C)C(c1cnn(C)c1)c1cccnc1C#N` (single isomer, unassigned) [Example 7 D1E2], the IC50 at full length human TREX1 and on full length mouse TREX1 was above 10 nM in each case.

Turning to `CC(c1nc(C(=O)Nc2cnoc2)c(O)c(=O)n1C)C(c1cnn(C)c1)c1cccnc1C#N` (single isomer, unassigned) [Example 7 D2E1], the concentration for half-maximal inhibition (IC50) at full length human TREX1 and on full length mouse TREX1 was above 10 nM each time.

Take `CC(c1nc(C(=O)Nc2cnoc2)c(O)c(=O)n1C)C(c1cnn(C)c1)c1ccncc1C#N` (single isomer, unassigned) [Example 8 D1E1]: the IC50 on full length human TREX1 and at full length mouse TREX1 was above 10 nM throughout.

`CC(c1nc(C(=O)Nc2cnoc2)c(O)c(=O)n1C)C(c1cnn(C)c1)c1ccncc1C#N` (single isomer, unassigned) [Example 8 D2E1]: the IC50 on full length human TREX1 and at full length mouse TREX1 was above 10 nM each time.

With `COCCn1cc(C(c2ccccc2C#N)C(C)c2nc(C(=O)Nc3cnoc3)c(O)c(=O)n2C)cn1` (single isomer, unassigned) [Example 9 D1E2], the IC50 at full length human TREX1 and at full length mouse TREX1 was above 10 nM each time.

Consider `COCCn1cc(C(c2ccccc2C#N)C(C)c2nc(C(=O)Nc3cnoc3)c(O)c(=O)n2C)cn1` (single isomer, unassigned) [Example 9 D2E2], for which the IC50 at full length human TREX1 and on full length mouse TREX1 was above 10 nM in each case.

As for `CC(c1nc(C(=O)Nc2cnoc2)c(O)c(=O)n1C)C(c1ccccc1C#N)c1cn(C)nc1C#N` (single isomer, unassigned) [Example 10 D2E2], the IC50 on full length human TREX1 and on full length mouse TREX1 was above 10 nM in each case.

Turning to `CC(c1nc(C(=O)Nc2cnoc2)c(O)c(=O)n1C)C(c1cnn(C)c1)c1ccc(C(=O)N(C)C)cc1C#N` (single isomer, unassigned) [Example 11 D2E1], the IC50 at full length human TREX1 and at full length mouse TREX1 was above 10 nM throughout.

In the case of `CC(c1nc(C(=O)Nc2cnoc2)c(O)c(=O)n1C)C(c1cnn(C)c1)c1ccc(C(=O)N(C)C)cc1C#N` (single isomer, unassigned) [Example 11 D2E2], the IC50 on full length human TREX1 and on full length mouse TREX1 was above 10 nM in each case.

Regarding `CC(c1nc(C(=O)Nc2cnoc2)c(O)c(=O)n1C)C(c1cn[nH]c1)c1ccccc1C#N` (single isomer, unassigned) [Example 12 D2E2], the IC50 on full length human TREX1 and on full length mouse TREX1 was above 10 nM each time.

In the case of `CCn1cc(C(c2ccccc2C#N)C(C)c2nc(C(=O)Nc3cnoc3)c(O)c(=O)n2C)cn1` (single isomer, unassigned) [Example 13 D2E2], the IC50 on full length human TREX1 and at full length mouse TREX1 was above 10 nM throughout.

As for `CC(c1nc(C(=O)Nc2cnoc2)c(O)c(=O)n1C)C(c1cnn(C)c1)c1cc(F)ccc1C#N` (single isomer, unassigned) [Example 14 D1E1], the IC50 at full length human TREX1 and on full length mouse TREX1 was above 10 nM throughout.

As for `CC(c1nc(C(=O)Nc2cnoc2)c(O)c(=O)n1C)C(c1cnn(C)c1)c1cc(F)ccc1C#N` (single isomer, unassigned) [Example 14 D2E2], the IC50 on full length human TREX1 and at full length mouse TREX1 was above 10 nM throughout.

As to `COC(C)(C)Cn1cc(C(c2ccccc2C#N)C(C)c2nc(C(=O)Nc3cnoc3)c(O)c(=O)n2C)cn1` (single isomer, unassigned) [Example 37 D2E2], at full length human TREX1, the IC50 is above 10 nM.

For `Cc1cnn(C(c2ccccc2C#N)C(C)c2nc(C(=O)Nc3cnoc3)c(O)c(=O)n2C)c1` (single isomer, unassigned) [Example 47 D1E1], on full length human TREX1, the IC50 was below 1 nM.

On to `Cc1cnn(C(c2ccccc2C#N)C(C)c2nc(C(=O)Nc3cnoc3)c(O)c(=O)n2C)c1` (single isomer, unassigned) [Example 47 D1E2], for which the IC50 on full length human TREX1 was above 10 nM.

Consider `CCn1cc(C(c2ccc(F)cc2C#N)C(C)c2nc(C(=O)Nc3cnoc3)c(O)c(=O)n2C)c(C)n1` (single isomer, unassigned) [Example 55 D2E1], for which the IC50 on full length human TREX1 was above 10 nM.

As for `Cc1ncc(C(c2ccccc2C#N)C(C)c2nc(C(=O)Nc3cnoc3)c(O)c(=O)n2C)cn1` (single isomer, unassigned) [Example 67 D1E1], the IC50 on full length human TREX1 was above 10 nM.

Turning to `Cc1ncc(C(c2ccccc2C#N)C(C)c2nc(C(=O)Nc3cnoc3)c(O)c(=O)n2C)cn1` (single isomer, unassigned) [Example 67 D2E1], the IC50 on full length human TREX1 was above 10 nM.

Regarding `Cc1ncc(C(c2ccccc2C#N)C(C)c2nc(C(=O)Nc3cnoc3)c(O)c(=O)n2C)cn1` (single isomer, unassigned) [Example 67 D2E2], the IC50 on full length human TREX1 is above 10 nM.

As for `CC(c1nc(C(=O)Nc2cnoc2)c(O)c(=O)n1C)C(c1cnn(C)c1)c1ccc(F)cc1Cl` (single isomer, unassigned) [Example 74 D1E1], the IC50 on full length human TREX1 was below 1 nM.

As to `CC(c1nc(C(=O)Nc2cnoc2)c(O)c(=O)n1C)C(c1cnn(C)c1)c1ccc(F)cc1Cl` (single isomer, unassigned) [Example 74 D1E2], the IC50 on full length human TREX1 is above 10 nM.

In the case of `CC(c1nc(C(=O)Nc2cnoc2)c(O)c(=O)n1C)C(c1cnn(C)c1)c1ccc(F)cc1Cl` (single isomer, unassigned) [Example 74 D2E1], the IC50 at full length human TREX1 was above 10 nM.

As for `CC(c1nc(C(=O)Nc2cnoc2)c(O)c(=O)n1C)C(c1cnn(C)c1)c1ccc(F)cc1Cl` (single isomer, unassigned) [Example 74 D2E2], the IC50 on full length human TREX1 is above 10 nM.

`[2H]C([2H])([2H])n1cc(C(c2ccccc2C#N)C(C)c2nc(C(=O)Nc3cnoc3)c(O)c(=O)n2C)cn1` (single isomer, unassigned) [Example 76 D1E1]: on full length human TREX1, the IC50 is below 1 nM.
